Test results: patent publication US20190231740A1, “BLOOD FLOW-IMPROVING AGENT, ROYAL JELLY COMPOSITION, AND METHOD FOR PRODUCING ROYAL JELLY COMPOSITION” (YAMADA BEE COMPANY, INC., priority 2016, published 2019)

Test system: blood flow volume of a hindlimb of the rat
Test: Hindlimb blood flow volume of rats after oral administration, measured with a two-dimensional laser blood flow meter
Type: in vivo
Conditions: male SD rat hindlimb; for Increase in blood flow volume: one hour after oral administration vs before administration, average of three rats; for Increase in blood flow volume / Change in hindlimb blood flow volume between before and after the administration (in words): 10-hydroxydecanoic acid 120 mg/kg, 10-H2DA 420 mg/kg, Toki-shakuyaku-san 3750 mg/kg; for Change in hindlimb blood flow volume between before and after the administration (in words): one hour after oral administration
Protocol: As a test animal, a 6 to 8 week-old male rat Slc: SD rat (Japan SLC, Inc.) was used. As test substances, 10-hydroxydecanoic acid (manufactured by Combi-Blocks Inc.), trans-10-hydroxy-2-decenoic acid (referred to as “10-H2DA” hereinafter, manufactured by HANGZOU EASTBIOPHARM CO., LTD.) and Toki-shakuyaku-san (manufactured by TSUMURA & CO.) were used. A 0.5% w/v aqueous solution of methyl cellulose 400 (Wako Pure Chemical Industries, Ltd.) was prepared, and in the aqueous solution, the test substances were each suspended, thereby preparing a 12 mg/mL solution of 10-hydroxydecanoic acid, a 42 mg/ml solution of 10-H2DA and a 375 mg/ml solution of Toki-shakuyaku-san. The test animals were divided into four groups each consisting of three animals, and these groups were referred to as a 10-hydroxydecanoic acid group, a 10-H2DA group, a Toki-shakuyaku-san group and a control group. Using a gastric tube, the respective methyl cellulose aqueous solutions were orally administered to the 10-hydroxydecanoic acid group in such a desired amount that the amount of 10-hydroxydecanoic acid was 120 mg/kg, to the 10-H2DA group in such a desired amount that the amount of 10-H2DA was 420 mg/kg, and to the Toki-shakuyaku-san group in such a desired amount that the amount of Toki-shakuyaku-san was 3750 mg/kg. To the control group, a control substance (0.5% w/v methyl cellulose aqueous solution 10 mL/kg) was orally administered using a gastric tube.
Before the administration of the test substance and after one hour from the administration, a blood flow volume of a hindlimb of the rat was measured in an awaking and non-fixed state. For the measurement, a two-dimensional laser blood flow meter OZ-1 (manufactured by OMEGAWAVE INC.) was used. An increase in the blood flow volume (average value of three rats) based on that before the administration of each of the control group, the 10-hydroxydecanoic acid group, the 10-H2DA group and the Toki-shakuyaku-san group after one hour from the administration is shown in Table 1.

Compound | Difference in blood flow volume between the control group and the treated group (one hour after oral administration of 120 mg/kg, FIG. 1) | Increase in blood flow volume | Change in hindlimb blood flow volume between before and after the administration (in words)
O=C(O)CCCCCCCCCO [10-Hydroxydecanoic acid, 10-hydroxydecanoic acid] | a significant difference (P=0.01) | 5.8 arbitrary unit | a remarkable increase in the blood flow volume
O=C(O)/C=C/CCCCCCCO [10-H2DA, trans-10-hydroxy-2-decenoic acid, reference compound] |  | 2.2 arbitrary unit | a certain increase in the blood flow volume
